Reference: patent US20140128380A1, “METHODS OF MODULATING THE ACTIVITY OF THE MC1 RECEPTOR AND TREATMENT OF CONDITIONS RELATED TO THIS RECEPTOR” (Mimetica Pty Ltd, priority 2009, published 2014)

Key:
human MC1R [1] = molecular target: T1, human MC1R (Homo sapiens, UniProt Q01726); assay: cAMP accumulation in MM96L cells transiently transfected with wild type MC1R; format: cell-based; conditions: 30 min stimulation with 10 μM compound
Protocol: In a similar assay testing for MC1R agonism, MM96L cells were transiently transfected with wild type MC1R and stimulated with compound (10 μM) for different time points, with cAMP accumulation compared to basal cAMP levels and the cAMP response to stimulation with NDP-MSH

human MC1R (hMC1R) = molecular target: T2, human MC1R (hMC1R) (Homo sapiens, UniProt Q01726); assay: Human MC1R radioligand binding assay (displacement of 125I-labeled NDP-MSH, Perkin Elmer hMC1R membranes); conditions: displacement of [125I]NDP-MSH, compounds tested as trifluoroacetate or hydrochloride salts or free base
T2 construct: purchased Perkin Elmer ES-195-M400UA
T2 sequence (Q01726 whole entry): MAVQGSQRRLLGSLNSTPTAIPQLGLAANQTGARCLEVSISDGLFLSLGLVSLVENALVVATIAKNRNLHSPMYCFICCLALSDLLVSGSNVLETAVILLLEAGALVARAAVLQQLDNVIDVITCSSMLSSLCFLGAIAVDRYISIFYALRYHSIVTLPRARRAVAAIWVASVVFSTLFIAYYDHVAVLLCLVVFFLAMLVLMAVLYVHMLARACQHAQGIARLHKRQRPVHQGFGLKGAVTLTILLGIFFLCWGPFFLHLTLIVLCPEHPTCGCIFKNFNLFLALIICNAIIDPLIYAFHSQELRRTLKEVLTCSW
How it was run: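 Frozen human MC1R membranes were incubated with in-house iodinated, HPLC-purified [125I]NDP-MSH for 1 hr at 37° C. Binding was measured as displacement of the labeled peptide.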

human MC1R [2] = molecular target: T1, human MC1R; assay: cAMP stimulation assay, agonist mode, HEK 293 cells transiently expressing MC1 receptor (Alphascreen); format: cell-based; design: host or cells: HEK 293 (transient transfection); conditions: HEK293 cell; read-out: human MC1R agonism (cAMP EC50 HEK293 cell)
Protocol: HEK 293 cells transiently expressing the melanocortin MC1 receptor were suspended in stimulation buffer (Hanks buffered saline solution (HBSS), 0.1% bovine serum albumin, protease inhibitors and 0.5 mM 3-Isobutyl-1-methylxanthine) at 4×10^6 cells/mL. 5 μl of cells, plus the compounds/peptides as described below, were added to wells of a 384-well plate as soon as possible after resuspension.
To detect agonist activity, test compounds at varying concentrations were diluted in stimulation buffer at two times concentrate and 5 μl was added to wells containing cells. Positive control wells contained NDP-MSH or alpha-MSH alone (no compound) at two times concentrate
Basal level (of cAMP) control wells contained stimulation buffer only (no agonist or compounds). Known concentrations of cAMP (standards) in stimulation buffer were included on the plate, but no cells were added to these wells. The plate was then incubated for 30 mins at 37° C. with gentle shaking. After incubation, 10 μl of lysis buffer (10% Tween 20, 1 M HEPES, 0.1% BSA, protease inhibitors, ddH2O) was added to all wells to be measured. Detection of cAMP was then achieved using the Alphascreen cAMP kit (Perkin Elmer, USA), briefly described as follows. A dilution of 10 μl acceptor beads/mL of lysis buffer was prepared in low light conditions. 5 μl of diluted acceptor beads were added to each well to be measured, then the plate was incubated for 30 mins at room temperature, in the dark, with gentle shaking. In low light conditions, donor beads were diluted at 10 μl/mL of lysis buffer, to which 0.75 μl biotinylated cAMP/mL of lysis buffer was added. This mixture was allowed to incubate for 30 mins at room temperature (in the dark) before proceeding with the assay. Following incubation, 5 μl/mL of biotinylated cAMP/Donor bead mix were added per well in low light conditions and the plate was incubated in the dark, at room temperature, for a further hr. Plates were read on an Envision plate reader (Perkin Elmer) after 1 hr and ˜16 hrs incubation. cAMP concentration in the cells was determined by the use of a ‘standard curve’ generated from the output of known cAMP concentrations as described below.
Each assay plate contained a “standard curve” of known concentrations of cAMP, in 10 fold dilutions. This is an essential part of the assay as there is high inter-plate variability. The plates were read on an Envision multilabel plate reader fitted with Alphascreen technology and the raw data was imported into GraphPad Prism 4 software (GraphPad, USA) for analysis.

T1 sequence (Q01726 whole entry): as above

Row | SMILES | human MC1R agonism (cAMP, fold incease over basal level) (human MC1R [1]) [fold] | IC50 (human MC1R (hMC1R)) [µM] | EC50 (human MC1R [2]) [µM]
1 | NCC[C@@H]1N[C@H](CNC(=O)/C=C/c2ccc(Cl)cc2)CCN(CC(c2ccccc2)c2ccccc2)C1=O [Compound 136, (E)-N-(((3S,5S)-3-(2-aminoethyl)-1-(2,2-diphenylethyl)-2-oxo-1,4-diazepan-5-yl)methyl)-3-(4-chlorophenyl)acrylamide] | 1.5 | < 10 | 
2 | N=C(N)NCCC[C@H]1N[C@@H](CNC(=O)c2ccc(-c3ccccc3)cc2)CCN(C(c2ccccc2)c2ccccc2)C1=O [Compound 186, N-(((3R,5R)-1-benzhydryl-3-(3-guanidinopropyl)-2-oxo-1,4-diazepan-5-yl)methyl)biphenyl-4-carboxamide] | 2.5 | < 10 | 
3 | N=C(N)NCCC[C@@H]1N[C@H](CNC(=O)c2ccc(Oc3ccccc3)cc2)CCN(CC(c2ccccc2)c2ccccc2)C1=O [Compound 112, N-(((3S,5S)-1-(2,2-diphenylethyl)-3-(3-guanidinopropyl)-2-oxo-1,4-diazepan-5-yl)methyl)-4-phenoxybenzamide] |  | < 10 | 11
4 | N=C(N)NCCC[C@@H]1N[C@H](CNC(=O)c2ccc3ccccc3c2)CCN(CC2CCCCC2)C1=O [Compound 116, N-(((3S,5S)-1-(cyclohexylmethyl)-3-(3-guanidinopropyl)-2-oxo-1,4-diazepan-5-yl)methyl)-2-naphthamide] |  | < 10 | 16
5 | CC(=O)N[C@@H](Cc1c[nH]cn1)C(=O)N[C@H](Cc1ccccc1)[C@@H]1CCN(CCc2c[nH]c3ccccc23)C(=O)[C@H](CCCNC(=N)N)N1 [Compound 119, (S)—N—((R)-1-((3S,5S)-1-(2-(1H-indol-3-yl)ethyl)-3-(3-guanidinopropyl)-2-oxo-1,4-diazepan-5-yl)-2-phenylethyl)-2-acetamido-3-(1H-imidazol-4-yl)propanamide] |  | < 10 | 7
6 | N=C(N)NCCC[C@H]1C(=O)N(C(c2ccccc2)c2ccccc2)CC[C@H]2CN(Cc3ccc(-c4ccccc4)cc3)C(=O)N21 [Compound 110, 1-(3-((5S,9aS)-7-benzhydryl-2-(biphenyl-4-ylmethyl)-3,6-dioxooctahydro-1H-imidazo[1,5-d][1,4]diazepin-5-yl)propyl)guanidine] | 1.5 | < 10 | 78
7 | N=C(N)NCCC[C@@H]1N[C@@H](CNC(=O)c2ccc(-c3ccccc3)cc2)CCN(C(c2ccccc2)c2ccccc2)C1=O [Compound 185, N-(((3S,5R)-1-benzhydryl-3-(3-guanidinopropyl)-2-oxo-1,4-diazepan-5-yl)methyl)biphenyl-4-carboxamide] | 1.5 | < 10 | 
8 | O=C(/C=C/c1ccc(Cl)cc1)NC[C@@H]1CCN(Cc2cc(Cl)cc(Cl)c2)C(=O)[C@H](CCN2CCCCC2)N1 [Compound 145, (E)-3-(4-chlorophenyl)-N-(((3S,5S)-1-(3,5-dichlorobenzyl)-2-oxo-3-(2-(piperidin-1-yl)ethyl)-1,4-diazepan-5-yl)methyl)acrylamide] |  | < 10 | 
9 | CC[C@H](CN1CC[C@@H](CNC(=O)c2ccc(-c3ccccc3)cc2)N[C@@H](CCN2CCCCC2)C1=O)c1ccccc1 [Compound 177, N-(((3S,5S)-2-oxo-1-((S)-2-phenylbutyl)-3-(2-(piperidin-1-yl)ethyl)-1,4-diazepan-5-yl)methyl)biphenyl-4-carboxamide] |  | < 10 | 
10 | N=C(N)NCCC[C@@H]1N[C@H](CNC(=O)c2ccc3ccccc3c2)CCN(CC(Oc2ccccc2)c2ccccc2)C1=O (stereo partly drawn) [Compound 138, N-(((3S,5S)-3-(3-guanidinopropyl)-2-oxo-1-(2-phenoxy-2-phenylethyl)-1,4-diazepan-5-yl)methyl)-2-naphthamide] |  | < 10 | 
11 | CC[C@H](CN1CC[C@@H](CNC(=O)c2ccc3cc(Cl)ccc3c2)N[C@@H](CCCN2CCCCC2)C1=O)c1ccccc1 [Compound 163, 6-chloro-N-(((3S,5S)-2-oxo-1-((S)-2-phenylbutyl)-3-(3-(piperidin-1-yl)propyl)-1,4-diazepan-5-yl)methyl)-2-naphthamide] |  | < 10 | 
12 | CC1CCC(C)N1CC[C@@H]1N[C@H](CNC(=O)/C=C/c2ccc(Cl)cc2)CCN(CC(c2ccccc2)c2ccccc2)C1=O (stereo partly drawn) [Compound 160, (E)-3-(4-chlorophenyl)-N-(((3S,5S)-3-(2-(2,5-dimethylpyrrolidin-1-yl)ethyl)-1-(2,2-diphenylethyl)-2-oxo-1,4-diazepan-5-yl)methyl)acrylamide] |  | < 10 | 
13 | CN(C)C(=N)NCCC[C@@H]1N[C@H](CNC(=O)c2ccc3ccccc3c2)CCN(CC(c2ccccc2)c2ccccc2)C1=O [Compound 117, N-(((3S,5S)-3-(3-(3,3-dimethylguanidino)propyl)-1-(2,2-diphenylethyl)-2-oxo-1,4-diazepan-5-yl)methyl)-2-naphthamide] |  | < 10 | 
14 | CC[C@H](CN1CC[C@@H](CNC(=O)c2ccc3cc(Cl)ccc3c2)N[C@@H](CCN(C(C)=O)C(C)C)C1=O)c1ccccc1 [Compound 180, 6-chloro-N-(((3S,5S)-3-(2-(N-isopropylacetamido)ethyl)-2-oxo-1-((S)-2-phenylbutyl)-1,4-diazepan-5-yl)methyl)-2-naphthamide] |  | < 10 | 
15 | CCC(CN1CC[C@@H](CNC(=O)c2ccc3ccccc3c2)N[C@@H](CCN)C1=O)c1ccccc1 (mixture of isomers) [Compound 102, N-(((3S,5S)-3-(2-aminoethyl)-2-oxo-1-(2-phenylbutyl)-1,4-diazepan-5-yl)methyl)-2-naphthamide] |  | < 10 | 
16 | CNC(=O)[C@H](Cc1ccc2ccccc2c1)N1CC[C@H](CNC(=O)[C@@H](N)Cc2ccc(F)cc2)N[C@@H](CCCNC(=N)N)C1=O [Compound 166, (S)-2-amino-3-(4-fluorophenyl)-N-(((3S,5R)-3-(3-guanidinopropyl)-1-((S)-1-(methylamino)-3-(naphthalen-2-yl)-1-oxopropan-2-yl)-2-oxo-1,4-diazepan-5-yl)methyl)propanamide] |  | < 10 | 
